Experimental data from US11447466B2, “Substituted indole compounds useful as inhibitors of TLR7/8/9” (BRISTOL-MYERS SQUIBB COMPANY, priority 2017, dated 2022).

How the values were obtained:
Assay type in all cases: cell-based
[1] = target: T1, human TLR7 (Homo sapiens, UniProt Q9NYK1); assay: TLR7 inhibition reporter assay (HEK-Blue SEAP reporter, gardiquimod stimulation); settings: HEK-Blue cells overexpressing human TLR7, SEAP reporter, gardiquimod 7.5 μM, 22 hour incubation
T1 construct: host or cells: HEK-Blue cells
T1 sequence (Q9NYK1 27-1049): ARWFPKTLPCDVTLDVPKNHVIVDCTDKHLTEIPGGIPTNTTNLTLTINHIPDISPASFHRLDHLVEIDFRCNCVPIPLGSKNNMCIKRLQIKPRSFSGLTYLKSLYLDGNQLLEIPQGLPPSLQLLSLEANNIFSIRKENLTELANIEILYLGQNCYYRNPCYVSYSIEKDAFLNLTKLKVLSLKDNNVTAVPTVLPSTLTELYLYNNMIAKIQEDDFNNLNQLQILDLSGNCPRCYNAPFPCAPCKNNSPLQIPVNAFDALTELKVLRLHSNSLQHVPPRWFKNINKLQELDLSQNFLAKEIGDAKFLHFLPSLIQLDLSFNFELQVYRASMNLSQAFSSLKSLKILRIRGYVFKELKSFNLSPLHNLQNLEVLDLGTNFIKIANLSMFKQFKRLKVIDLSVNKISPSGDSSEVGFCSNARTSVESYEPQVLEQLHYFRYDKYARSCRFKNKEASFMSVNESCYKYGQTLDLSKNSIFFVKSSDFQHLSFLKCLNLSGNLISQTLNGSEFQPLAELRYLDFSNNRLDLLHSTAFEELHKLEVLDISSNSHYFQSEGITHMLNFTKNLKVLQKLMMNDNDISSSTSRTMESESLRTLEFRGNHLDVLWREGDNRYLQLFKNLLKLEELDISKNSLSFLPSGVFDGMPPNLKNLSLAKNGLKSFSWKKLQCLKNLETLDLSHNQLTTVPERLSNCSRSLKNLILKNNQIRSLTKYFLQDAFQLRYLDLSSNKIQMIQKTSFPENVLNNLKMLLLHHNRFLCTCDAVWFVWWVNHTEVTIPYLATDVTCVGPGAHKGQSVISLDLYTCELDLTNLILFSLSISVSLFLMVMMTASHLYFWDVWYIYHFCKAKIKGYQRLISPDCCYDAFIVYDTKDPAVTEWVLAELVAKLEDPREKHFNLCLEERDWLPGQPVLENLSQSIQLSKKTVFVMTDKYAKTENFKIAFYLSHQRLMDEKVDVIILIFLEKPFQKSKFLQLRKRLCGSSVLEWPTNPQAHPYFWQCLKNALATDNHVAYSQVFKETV
How it was run: (§1)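 Agonists used: gardiquimod 7.5 μM (TLR7), R848 15.9 μM (TLR8), ODN2006 5 nM (TLR9), added after 30 min room-temperature compound pre-treatment (0.05 nM–50 μM) of receptor-overexpressing HEK-Blue cells. SEAP reporter (NF-κB/AP-1 driven) read after 22 h at 37 °C; inhibition scaled between agonist+DMSO and reference-inhibitor wells.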

[2] = target: T2, human TLR8 (Homo sapiens, UniProt Q9NR97); assay: TLR8 inhibition reporter assay (HEK-Blue SEAP reporter, R848 stimulation); settings: HEK-Blue cells overexpressing human TLR8, SEAP reporter, R848 15.9 μM, 22 hour incubation
T2 construct: host or cells: HEK-Blue cells
T2 sequence (Q9NR97 27-1041): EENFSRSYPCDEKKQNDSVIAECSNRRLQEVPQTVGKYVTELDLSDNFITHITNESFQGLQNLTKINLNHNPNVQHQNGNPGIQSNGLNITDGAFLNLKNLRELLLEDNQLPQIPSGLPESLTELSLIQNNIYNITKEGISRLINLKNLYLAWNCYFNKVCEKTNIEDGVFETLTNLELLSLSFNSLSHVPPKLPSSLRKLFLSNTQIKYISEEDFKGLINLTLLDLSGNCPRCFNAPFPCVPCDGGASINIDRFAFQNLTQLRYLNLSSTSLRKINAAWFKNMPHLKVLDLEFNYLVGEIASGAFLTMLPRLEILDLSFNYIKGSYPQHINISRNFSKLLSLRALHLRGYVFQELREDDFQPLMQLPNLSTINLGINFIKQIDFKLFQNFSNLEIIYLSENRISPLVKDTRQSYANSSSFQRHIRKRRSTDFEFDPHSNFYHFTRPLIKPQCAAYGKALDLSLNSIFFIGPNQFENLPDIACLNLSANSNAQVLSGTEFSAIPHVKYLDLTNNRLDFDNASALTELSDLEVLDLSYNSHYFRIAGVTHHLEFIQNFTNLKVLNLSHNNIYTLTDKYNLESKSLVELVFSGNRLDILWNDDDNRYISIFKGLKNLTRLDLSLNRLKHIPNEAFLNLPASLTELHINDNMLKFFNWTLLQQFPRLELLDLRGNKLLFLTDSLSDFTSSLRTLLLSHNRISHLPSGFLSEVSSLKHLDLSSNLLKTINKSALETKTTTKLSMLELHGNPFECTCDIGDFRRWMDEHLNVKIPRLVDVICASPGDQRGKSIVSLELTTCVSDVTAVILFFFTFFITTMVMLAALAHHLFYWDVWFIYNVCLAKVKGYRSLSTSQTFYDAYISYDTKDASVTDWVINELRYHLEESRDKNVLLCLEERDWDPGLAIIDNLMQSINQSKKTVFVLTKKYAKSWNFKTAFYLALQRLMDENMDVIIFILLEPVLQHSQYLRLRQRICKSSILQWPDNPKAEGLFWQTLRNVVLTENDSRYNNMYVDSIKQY
How it was run: as §1

[3] = target: T3, human TLR9 (Homo sapiens, UniProt Q9NR96); assay: TLR9 inhibition reporter assay (HEK-Blue SEAP reporter, ODN2006 stimulation); settings: HEK-Blue cells overexpressing human TLR9, SEAP reporter, ODN2006 5 nM, 22 hour incubation
T3 construct: host or cells: HEK-Blue cells
T3 sequence (Q9NR96 26-1032): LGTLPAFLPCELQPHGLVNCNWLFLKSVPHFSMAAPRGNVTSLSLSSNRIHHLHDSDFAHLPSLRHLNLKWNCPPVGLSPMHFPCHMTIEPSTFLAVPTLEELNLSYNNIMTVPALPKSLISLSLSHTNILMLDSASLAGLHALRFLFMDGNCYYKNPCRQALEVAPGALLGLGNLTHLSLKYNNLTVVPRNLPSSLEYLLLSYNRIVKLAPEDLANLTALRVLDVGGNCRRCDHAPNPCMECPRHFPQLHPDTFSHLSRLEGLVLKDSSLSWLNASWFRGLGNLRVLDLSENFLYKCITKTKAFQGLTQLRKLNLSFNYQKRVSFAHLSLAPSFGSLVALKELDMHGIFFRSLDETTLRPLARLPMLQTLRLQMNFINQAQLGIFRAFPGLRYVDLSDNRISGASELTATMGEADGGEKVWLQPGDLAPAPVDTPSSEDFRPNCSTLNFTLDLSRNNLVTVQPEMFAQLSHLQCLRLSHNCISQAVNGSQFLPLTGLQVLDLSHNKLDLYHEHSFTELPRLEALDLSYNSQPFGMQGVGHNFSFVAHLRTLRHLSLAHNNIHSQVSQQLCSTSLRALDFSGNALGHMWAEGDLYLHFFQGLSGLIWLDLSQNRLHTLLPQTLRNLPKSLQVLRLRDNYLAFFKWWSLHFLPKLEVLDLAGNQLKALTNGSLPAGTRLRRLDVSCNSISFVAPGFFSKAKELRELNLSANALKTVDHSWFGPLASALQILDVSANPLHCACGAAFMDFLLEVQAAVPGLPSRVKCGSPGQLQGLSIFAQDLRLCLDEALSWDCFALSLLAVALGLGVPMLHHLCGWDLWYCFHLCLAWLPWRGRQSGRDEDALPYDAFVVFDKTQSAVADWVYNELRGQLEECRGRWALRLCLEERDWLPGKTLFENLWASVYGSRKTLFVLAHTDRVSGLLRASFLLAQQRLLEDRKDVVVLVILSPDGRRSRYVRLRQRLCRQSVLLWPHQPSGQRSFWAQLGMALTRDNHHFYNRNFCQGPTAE
How it was run: as §1

Compound	IC50 [1]	IC50 [2]	IC50 [3]
COc1cc(-c2[nH]c3ccc(C4CCN(C5COC5)CC4)cc3c2C(C)C)c(C)n(C)c1=O [Example 217, 5-(3-isopropyl-5-(1-(oxetan-3-yl)piperidin-4-yl)-1H-indol-2-yl)-3-methoxy-1,6-dimethylpyridin-2(1H)-one]	659 nM	163 nM	10.9 µM
Cc1c(-c2[nH]c3ccc(C4CCN(C5COC5)CC4)cc3c2C(C)C)cc(C#N)c(=O)n1C [Example 219, 5-(3-isopropyl-5-(1-(oxetan-3-yl)piperidin-4-yl)-1H-indol-2-yl)-1,6-dimethyl-2-oxo-1,2-dihydropyridine-3-carbonitrile]	48 nM	9.1 nM	22.3 µM
Cc1c(-c2[nH]c3ccc(C4CCN(C5CCOCC5)CC4)cc3c2C(C)C)cc(C#N)c(=O)n1C [Example 220, 5-(3-isopropyl-5-(1-(tetrahydro-2H-pyran-4-yl)piperidin-4-yl)-1H-indol-2-yl)-1,6-dimethyl-2-oxo-1,2-dihydropyridine-3-carbonitrile]	24.5 nM	1.4 nM	2.78 µM
Cc1c(-c2[nH]c3ccc(C4CCN(C5COC5)CC4)cc3c2C(C)C)cn(C)c(=O)c1C#N [Example 221, 5-(3-isopropyl-5-(1-(oxetan-3-yl)piperidin-4-yl)-1H-indol-2-yl)-1,4-dimethyl-2-oxo-1,2-dihydropyridine-3-carbonitrile]	67 nM	9.3 nM	25.4 µM
Cc1cc(-c2[nH]c3ccc(C4CCN(CC5CCOC5)CC4)cc3c2C(C)C)cn(C)c1=O (stereo not drawn) [Example 225, 5-(3-isopropyl-5-(1-((tetrahydrofuran-3-yl)methyl)piperidin-4-yl)-1H-indol-2-yl)-1,3-dimethylpyridin-2(1H)-one]	4.6 nM	3.6 nM	6.99 µM
CC(C)c1c(-c2cc(Cl)c(=O)n(C)c2)[nH]c2ccc(C3CCN(C4CCOCC4)CC3)cc12 [Example 226, 3-chloro-5-(3-isopropyl-5-(1-(tetrahydro-2H-pyran-4-yl)piperidin-4-yl)-1H-indol-2-yl)-1-methylpyridin-2(1H)-one]	3.8 nM	7 nM	10.4 µM
Cc1cc(-c2[nH]c3ccc(C4CCN(Cc5cnn(C(C)C)c5)CC4)cc3c2C(C)C)cn(C)c1=O [Example 227]	3.8 nM	4.1 nM	3.04 µM
CCCn1cc(CN2CCC(c3ccc4[nH]c(-c5cc(C)c(=O)n(C)c5)c(C(C)C)c4c3)CC2)cn1 [Example 228, 5-(3-isopropyl-5-(1-((1-propyl-1H-pyrazol-4-yl)methyl)piperidin-4-yl)-1H-indol-2-yl)-1,3-dimethylpyridin-2(1H)-one]	3.6 nM	4.3 nM	4.27 µM
CC(=O)NC1CCC(N2CCC(c3ccc4[nH]c(-c5cc(C)c(=O)n(C)c5)c(C(C)C)c4c3)CC2)CC1 (stereo not drawn) [Example 229, N-(4-(4-(2-(1,5-dimethyl-6-oxo-1,6-dihydropyridin-3-yl)-3-isopropyl-1H-indol-5-yl)piperidin-1-yl)cyclohexyl)acetamide]	5.7 nM	4.2 nM	≥ 50 µM

Further lines, results first:

IC50 [1]	IC50 [2]	IC50 [3]	Compound
13.9 nM	7.9 nM	5.69 µM	Cc1cc(-c2[nH]c3ccc(C4CCN(C(C)C)CC4)cc3c2C(C)C)c(C)n(C)c1=O [Example 214, 5-(3-isopropyl-5-(1-isopropylpiperidin-4-yl)-1H-indol-2-yl)-1,3,6-trimethylpyridin-2(1H)-one]
66.1 nM	54.9 nM	17.2 µM	COc1c(C)c(-c2[nH]c3ccc(C4CCN(C5COC5)CC4)cc3c2C(C)C)cn(C)c1=O [Example 215, 5-(3-isopropyl-5-(1-(oxetan-3-yl)piperidin-4-yl)-1H-indol-2-yl)-3-methoxy-1,4-dimethylpyridin-2(1H)-one]
15.6 nM	0.9 nM	3.07 µM	Cc1c(-c2[nH]c3ccc(C4CCN(C5CCOCC5)CC4)cc3c2C(C)C)cn(C)c(=O)c1C#N [Example 222, 5-(3-isopropyl-5-(1-(tetrahydro-2H-pyran-4-yl)piperidin-4-yl)-1H-indol-2-yl)-1,4-dimethyl-2-oxo-1,2-dihydropyridine-3-carbonitrile]
10 nM	13.6 nM	5.91 µM	Cc1cc(-c2[nH]c3ccc(C4CCN(CC5CC5)CC4)cc3c2C(C)C)cn(C)c1=O [Example 223, 5-(5-(1-(cyclopropylmethyl)piperidin-4-yl)-3-isopropyl-1H-indol-2-yl)-1,3-dimethylpyridin-2(1H)-one]
1.8 nM	4.5 nM	14 µM	CCCN1CCC(c2ccc3[nH]c(-c4cc(C)c(=O)n(C)c4)c(C(C)C)c3c2)CC1 [Example 224, 5-(3-isopropyl-5-(1-propylpiperidin-4-yl)-1H-indol-2-yl)-1,3-dimethylpyridin-2(1H)-one]
